Measured values reported in the supplement of paper PMC10307832.

Assays:
Assay in all cases: relative viability (nuclei count vs DMSO), 5 days (fraction); higher = more cells survive
[1] = compound: CC(C)Oc1cc(Nc2nc(N[C@@H](C)c3ccc(F)cn3)ncc2Cl)n[nH]1 [AZ23]
How it was run: (§1)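 Cells of lung cancer lines were placed in 1536-well plates and kept overnight at 37 °C. Pinning then delivered five library-drug doses (not always all listed), spaced by √10, onto plates anchored with vehicle, and the cells were left 5 days without changing medium. One step fixed, permeabilised and stained them with Hoechst, and MetaXpress counted nuclei in 4× images. Viability, as a median over plates, is treated-well nuclei divided by vehicle-well nuclei, with acceptance only at control CV below 25% and at least one doubling.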

[2] = compound: CC(C)S(=O)(=O)C1=CC=CC=C1NC2=NC(=NC(=C2Cl)N)NC3=C(C=C(C=C3)N4CCC(CC4)C(=O)N)OC [HG-5-88-01]
How it was run: as §1

[3] = compound: CCCCCCCCCCCC1=C(O)C(=O)C=C(O)C1=O [Embelin]
How it was run: as §1

[4] = compound: C[C@@H]1CN(CC(=O)Nc2ccc3c(c2)Cc2cccc(-c4cc(=O)cc(N5CCOCC5)o4)c2S3)C[C@H](C)O1
How it was run: as §1

[5] = compound: Clc1ccc(Nc2nnc(Cc3ccncc3)c3ccccc23)cc1 [Vatalanib]
How it was run: as §1

Row | Cell Line | relative viability ([1]; 0.01 µM) | relative viability ([1]; 0.03162 µM) | relative viability ([1]; 0.3162 µM) | relative viability ([2]; 0.04 µM) | relative viability ([2]; 0.1265 µM) | relative viability ([2]; 0.4 µM) | relative viability ([2]; 1.265 µM) | relative viability ([2]; 4 µM) | relative viability ([3]; 0.08 µM) | relative viability ([3]; 0.8 µM) | relative viability ([3]; 2.53 µM) | relative viability ([3]; 8 µM) | relative viability ([4]; 0.04 µM) | relative viability ([4]; 0.1265 µM) | relative viability ([4]; 0.4 µM) | relative viability ([4]; 4 µM) | relative viability ([5]; 0.04 µM) | relative viability ([5]; 0.1265 µM) | relative viability ([5]; 0.4 µM) | relative viability ([5]; 1.265 µM) | relative viability ([5]; 4 µM)
1 | LK-2 | 0.802 | 1.14 | 0.959 | 0.976 | 0.994 | 0.962 | 0.582 | 0.789 | 1.1 | 1.07 | 1.25 | 0.856 | 0.848 | 0.923 | 0.979 | 1.1 | 0.952 | 0.863 | 0.889 | 1.01 | 0.995
2 | NCI-H1755 | 1.09 | 1.05 | 1.06 | 1.02 | 1.03 | 0.99 | 1.02 | 1.01 | 0.986 | 1.03 | 1.02 | 0.892 | 1.01 | 0.986 | 1.03 | 1.01 | 1.03 | 0.959 | 0.966 | 0.944 | 0.99
3 | LCLC-103H | 1.04 | 0.993 | 1.08 | 1.04 | 1.04 | 0.86 | 0.96 | 0.657 | 0.999 | 1.06 | 1.04 | 0.8 | 1.01 | 0.903 | 0.793 | 0.926 | 1.05 | 0.932 | 1.01 | 0.993 | 0.977
4 | NCI-H23 |  | 1.07 | 0.887 | 1.03 | 0.993 | 0.959 | 0.824 | 0.392 | 0.987 | 1.07 | 1.03 | 0.705 | 1.08 | 0.923 | 0.943 | 0.96 | 0.948 | 0.833 | 1.04 | 0.961 | 0.853
5 | COR-L 105 | 0.843 | 1.1 | 1.04 | 0.825 | 0.969 | 0.883 | 0.726 | 0.685 | 1.04 | 1.1 | 0.89 | 0.981 | 0.921 | 1.01 | 1.05 | 0.805 | 0.901 | 0.895 | 1.03 | 0.892 | 0.835
6 | EMC-BAC-2 | 0.886 | 1.08 | 0.986 | 0.977 | 1.04 | 0.85 | 0.93 | 0.887 | 1.01 | 1.11 | 0.83 | 0.83 | 0.95 | 0.985 | 0.957 | 1.02 | 0.966 | 0.974 | 0.974 |  | 0.949
7 | NCI-H727 | 0.832 | 0.94 | 0.973 | 1.08 | 0.883 | 0.958 | 0.606 | 0.63 | 1.03 | 0.935 | 0.958 | 0.976 | 0.93 | 0.885 | 0.991 | 0.882 | 0.943 | 0.858 | 0.899 | 0.832 | 0.887
8 | NCI-H2085 | 1.11 | 1.05 | 0.961 | 1.05 | 1.07 | 1.02 | 0.972 | 1.01 | 0.985 | 1.05 | 1.07 | 0.992 | 0.957 | 1.02 | 0.977 | 0.834 | 0.997 | 0.953 | 0.975 | 0.92 | 0.931
9 | UMC-11 | 0.954 | 1.01 | 0.968 | 0.887 | 1.02 | 0.843 | 0.943 | 0.807 | 0.987 | 1.07 | 1.02 | 0.974 | 0.969 | 0.938 | 1.01 | 0.865 | 1 | 0.953 | 0.954 | 0.984 | 1.03
10 | SK-LU-1 |  | 1.14 | 1.08 | 0.982 | 1.04 | 0.998 | 0.876 | 0.708 | 1.13 | 1.19 | 1.26 | 0.928 | 1.04 | 1.04 | 1.1 | 0.853 | 1.09 | 0.993 | 1.14 | 1.04 | 1.05
11 | NCI-H520 | 0.915 | 1.11 | 0.92 | 0.994 | 1.05 | 0.959 | 1 | 1.02 | 1.07 | 1.1 | 1.11 | 0.931 | 0.797 | 1.05 | 0.901 | 0.94 | 1.07 | 0.92 | 1.08 | 0.881 | 0.841
12 | HARA | 0.821 | 1.1 | 1.07 | 1.04 | 0.979 | 0.923 | 0.598 | 0.805 | 0.963 | 1.12 | 1.05 | 0.929 | 0.931 | 0.908 | 0.873 | 0.911 | 0.88 | 0.99 | 1.12 | 0.878 | 1.03
